Reference: patent US11236102B2, “Oxabicycloheptane prodrugs” (Lixte Biotechnology, Inc., priority 2015, dated 2022)
Entries after “also recorded” stand apart in the source; their conditions may differ.

Experiments:
[1] = Oral absorption / oral bioavailability of 151 and 100; conditions: rat, in vivo
[2] = Pharmacokinetic study of 153 (iv, po) in SD rats: 153 and endothal in plasma, liver, brain; format: in vivo, SD rats; conditions: for Endothal plasma concentration: individual rats
Description: The blood, liver and brain tissue samples were collected at predetermined times from rats. […] Compound were diluted shortly before use in 4% sodium bicarbonate for sterile injection (this is the standard pediatric solution of NaHCO3 with a pH of about 8.5).
Compound 153 was freshly prepared by diluting the drugs shortly before use in 4% sodium bicarbonate for sterile injection (this is the standard pediatric solution of NaHCO3 with a pH of about 8.5). The final concentrations of 153 solutions were 0.25 mg/mL. The 153 solutions were administered via iv or po route at dose volume of 5 ml/kg according to the latest body weight. Compound 157 was freshly prepared by diluting the drugs shortly before use in 4% sodium bicarbonate for sterile injection (this is the standard pediatric solution of NaHCO3 with a pH of about 8.5). The final concentrations of […] solutions were 0.3 mg/mL. The 157 solutions were administered via iv or po route at dose volume of 5 ml/kg according to the latest body weight.
Twelve (12) female SD rats per group were dosed by iv with 153 or 157. The rats were fasted overnight prior to dosing, with free access to water. Foods were withheld for 2 hours post-dose. Blood, liver and brain tissue samples in two animals each group were collected at each time point, within 10% of the scheduled time for each time point. Two extra animals were used for analytic method development.
Blood (>0.3 mL) were collected via aorta abdominalis in anaesthetic animals into tubes containing heparin at 15 min, 1, 2, 6, 10 and 24 hours after iv administration. Liver and brain tissues were collected immediately after animal death. The liver and brain tissues were excised and rinsed with cold saline to avoid blood residual. Upon collection, each sample was placed on ice and the blood samples were subsequently centrifuged (4° C., 11000 rpm, 5 min) to separate plasma.
The obtained plasma, liver and brain tissue samples were stored at −70° C. until LC-MS/MS analysis.
Two (2) female SD rats per group were dosed by po with 153 or 157. The rats were fasted overnight prior to dosing, with free access to water. Foods were withheld for 2 hours post-dose. Blood samples (>0.3 mL) were collected via aorta abdominalis in anaesthetic animals into tubes containing heparin at 30 min, 1, 2, 6, 10 and 24 hours after po administration.
To each sample, 20 μL IS-D (for blank samples, 20 μL acetonitrile:water (1:1) was added) and 300 μl acetonitrile was added. The sample mixture was vortexed for approximately 3 min. After centrifugation at 10000 rpm for 5 min at 4° C., 100 μL of the upper layer was transferred to a new tube and added 200 μL 0.4% formic acid in water (pH 6.0). The mixture was vortexed for approximately 3 min before injected onto the LC/MS/MS system for analysis.
On the day of the assay, the frozen liver and brain samples were thawed unassisted at room temperature. An about 200 mg weighed sample of each thawed tissue was placed into a plastic tube with water (0.6 mL) to facilitate homogenization. Tissue processing was conducted using a homogenizer for approximately 1 min, 200 μl homogenate was transferred into a fresh Eppendorf tube. To each tube, 50 μL IS-D was added and mixed. Then 600 ul acetonitrile was added and the sample mixture was vortexed for approximately 3 min. After centrifugation at 10000 rpm for 5 min at 4° C., 400 μL of the upper layer was transferred to a new tube and evaporate the supernatant to dryness at 35° C. Reconstitute the residue with 200 μL of 0.4% formic acid in water (pH6.0), and vortex for 3 min, submit for LC-MS/MS analysis.
Frozen unknown plasma samples were completely thawed at room temperature and vortexed thoroughly. With a pipette, 50 μL of plasma was transferred into a 2.0 mL Eppendorf tube. 50 μL of 0.1N HCl and 800 μL ethyl acetate were added into each sample. The sample mixture was vortexed for approximately 3 min.

With `COC(=O)C1C2CCC(O2)C1C(=O)N1CCN(C)CC1` (centres unmarked) [Compound 151] the bioavailability [1] was ~60%.
In the case of `O=C(O)C1C2CCC(O2)C1C(=O)O` (centres unmarked) [Endothal, 7-oxabicyclo[2.2.1]heptane-2,3-dicarboxylic acid], the “detectability in brain samples” value ([2]; endothal after single iv 153 at 1.25 mg/kg, 1.25 mg/kg) is reported as “not detectable; also recorded: undetectable”, the Cmax ([2]; female, SD, rat, in vivo, po, 1.25 mg/kg) is reported as 46.9 ng/mL and the AUC ([2]; female, Sprague-Dawley, rat, in vivo, iv, 1.25 mg/kg) is reported as 378 ng·h/mL. The Endothal plasma concentration ([2]; iv administration of 153, 10 hr) was “BLQ”, the Endothal plasma concentration ([2]; iv administration of 153, 24 hr) was “BLQ” and the Endothal plasma concentration ([2]; po administration of 153, 10 hr) was “BLQ”. For the same compound, the AUClast in liver ([2]; rat, in vivo, iv, 1.25 mg/kg) was 10820 ng·h/g.
